# From publication PMC4676015, “Variant fatty acid-like molecules Conjugation, novel approaches for extending the stability of therapeutic peptides” (Scientific Reports, 2015)
# Key:
# GLP-1 receptor (GLP-1R) = target: T1, GLP-1 receptor (GLP-1R) (Rattus norvegicus, UniProt P32301); assay: GLP-1 receptor binding assay (cellular ELISA)
# T1 construct: endogenous in cells; host or cells: rat INS-1 cells
# T1 sequence (P32301 22-463): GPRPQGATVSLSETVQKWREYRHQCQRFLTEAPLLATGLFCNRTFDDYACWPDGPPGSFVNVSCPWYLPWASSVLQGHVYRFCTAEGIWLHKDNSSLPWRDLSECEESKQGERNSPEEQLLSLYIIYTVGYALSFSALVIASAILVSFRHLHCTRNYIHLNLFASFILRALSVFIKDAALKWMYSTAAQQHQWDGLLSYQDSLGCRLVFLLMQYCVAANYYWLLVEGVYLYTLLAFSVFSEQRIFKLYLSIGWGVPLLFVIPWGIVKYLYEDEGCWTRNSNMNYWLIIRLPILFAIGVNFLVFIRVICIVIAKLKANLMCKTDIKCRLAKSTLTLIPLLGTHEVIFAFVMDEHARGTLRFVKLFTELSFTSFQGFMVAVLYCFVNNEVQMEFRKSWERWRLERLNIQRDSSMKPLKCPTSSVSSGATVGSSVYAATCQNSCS
# Protocol: Cells were rinsed with PBS and fixed with 4% paraformaldehyde (Thermo Scientific) for 10 min at room temperature and quenched for 5 min with 2% glycine in PBS, pH 7.5. […] After a 2 h incubation at 37 °C in a final volume of 100 μl, the excess peptides were washed, and the cells were blocked with 5% BSA (BD Biosciences). […] Colorimetric changes were analyzed by reading the absorbance at 450 nm in a SpectraMax M5 (Molecular Device) microplate reader. The peptide concentration was plotted against UV absorbance, and the Kd was calculated using Origin 7.0 software.
# DPP IV enzyme = target: T2, DPP IV enzyme (Homo sapiens, UniProt P27487); assay: Stability against DPP IV proteolysis with or without HSA; type: in vitro ADME; details: DPP IV 0.1 mg/ml, peptide 1 mg/ml, 37 °C, GLP-1 (7–37) ELISA; for degradation in DPP IV proteolysis compared with wild-type GLP-1, within 24 h: 25 mM potassium phosphate, 25 mM KCl, 5 mM MgCl2, pH 7.0, 2% HSA; for detectability of full-length peptide at 24 h: pH 7.0, in the presence of human serum albumin (2%)
# T2 construct: purchased Sigma-Aldrich
# T2 sequence (P27487 whole entry, species assumed): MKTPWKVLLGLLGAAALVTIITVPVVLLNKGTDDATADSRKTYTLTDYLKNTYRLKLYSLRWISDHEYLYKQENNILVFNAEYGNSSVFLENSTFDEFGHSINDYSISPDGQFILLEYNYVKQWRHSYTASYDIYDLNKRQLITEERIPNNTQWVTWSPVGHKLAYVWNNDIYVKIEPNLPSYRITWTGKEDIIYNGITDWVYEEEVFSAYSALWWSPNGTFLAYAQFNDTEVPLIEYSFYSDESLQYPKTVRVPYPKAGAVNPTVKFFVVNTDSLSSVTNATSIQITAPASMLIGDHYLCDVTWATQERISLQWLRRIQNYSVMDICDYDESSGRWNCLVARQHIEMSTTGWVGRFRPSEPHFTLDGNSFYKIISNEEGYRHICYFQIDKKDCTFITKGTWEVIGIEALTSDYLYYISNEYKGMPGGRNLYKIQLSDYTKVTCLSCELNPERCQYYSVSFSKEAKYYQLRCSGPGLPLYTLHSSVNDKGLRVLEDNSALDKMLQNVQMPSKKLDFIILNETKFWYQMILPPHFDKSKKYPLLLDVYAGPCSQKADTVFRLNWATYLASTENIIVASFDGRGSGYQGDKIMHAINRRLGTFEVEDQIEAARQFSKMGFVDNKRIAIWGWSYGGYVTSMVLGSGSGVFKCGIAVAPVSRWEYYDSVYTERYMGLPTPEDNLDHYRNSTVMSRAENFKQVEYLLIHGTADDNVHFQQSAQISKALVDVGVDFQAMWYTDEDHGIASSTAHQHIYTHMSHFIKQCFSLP
# Protocol: DPP IV enzyme (0.1 mg/ml) was dissolved in 25 mM potassium phosphate buffer containing 25 mM potassium chloride and 5 mM magnesium chloride, pH 7.0.
Kd (GLP-1 receptor (GLP-1R)) [nM],"degradation in DPP IV proteolysis compared with wild-type GLP-1, within 24 h (DPP IV enzyme)",detectability of full-length peptide at 24 h (DPP IV enzyme),SMILES
13.7 ± 0.88,slower degradation rates,still detectable at 24 h,CCCCCCCCCCCCCCCC(=O)NCCCC[C@H](NC(=O)[C@@H](NC(=O)[C@H](CC(C)C)NC(=O)[C@H](Cc1c[nH]c2ccccc12)NC(=O)[C@H](C)NC(=O)[C@@H](NC(=O)[C@H](Cc1ccccc1)NC(=O)[C@H](CCC(=O)O)NC(=O)[C@H](CCCCN)NC(=O)[C@H](C)NC(=O)[C@H](C)NC(=O)[C@H](CCC(N)=O)NC(=O)CNC(=O)[C@H](CCC(=O)O)NC(=O)[C@H](CC(C)C)NC(=O)[C@H](Cc1ccc(O)cc1)NC(=O)[C@H](CO)NC(=O)[C@H](CO)NC(=O)[C@@H](NC(=O)[C@H](CC(=O)O)NC(=O)[C@H](CO)NC(=O)[C@@H](NC(=O)[C@H](Cc1ccccc1)NC(=O)[C@@H](NC(=O)CNC(=O)[C@H](CCC(=O)O)NC(=O)[C@H](C)NC(=O)[C@@H](N)Cc1c[nH]cn1)[C@@H](C)O)[C@@H](C)O)C(C)C)[C@@H](C)CC)C(C)C)C(=O)NCC(=O)N[C@@H](CCCNC(=N)N)C(=O)NCC(=O)O [compound 6]
97.4 ± 2.11,–,–,CCCCCCCCCCCCNC(=O)C[C@H](NC(=O)[C@H](CO)NC(=O)[C@@H](NC(=O)[C@H](Cc1ccccc1)NC(=O)[C@@H](NC(=O)CNC(=O)[C@H](CCC(=O)O)NC(=O)[C@H](C)NC(=O)[C@@H](N)Cc1c[nH]cn1)[C@@H](C)O)[C@@H](C)O)C(=O)N[C@H](C(=O)N[C@@H](CO)C(=O)N[C@@H](CO)C(=O)N[C@@H](Cc1ccc(O)cc1)C(=O)N[C@@H](CC(C)C)C(=O)N[C@@H](CCC(=O)O)C(=O)NCC(=O)N[C@@H](CCC(N)=O)C(=O)N[C@@H](C)C(=O)N[C@@H](C)C(=O)N[C@@H](CCCCN)C(=O)N[C@@H](CCC(=O)O)C(=O)N[C@@H](Cc1ccccc1)C(=O)N[C@H](C(=O)N[C@@H](C)C(=O)N[C@@H](Cc1c[nH]c2ccccc12)C(=O)N[C@@H](CC(C)C)C(=O)N[C@H](C(=O)N[C@@H](CCCCN)C(=O)NCC(=O)N[C@@H](CCCNC(=N)N)C(=O)NCC(=O)O)C(C)C)[C@@H](C)CC)C(C)C [compound 11]
84.6 ± 4.36,–,–,CCCCCCCCCCCCCCCCNC(=O)C[C@H](NC(=O)[C@H](CO)NC(=O)[C@@H](NC(=O)[C@H](Cc1ccccc1)NC(=O)[C@@H](NC(=O)CNC(=O)[C@H](CCC(=O)O)NC(=O)[C@H](C)NC(=O)[C@@H](N)Cc1c[nH]cn1)[C@@H](C)O)[C@@H](C)O)C(=O)N[C@H](C(=O)N[C@@H](CO)C(=O)N[C@@H](CO)C(=O)N[C@@H](Cc1ccc(O)cc1)C(=O)N[C@@H](CC(C)C)C(=O)N[C@@H](CCC(=O)O)C(=O)NCC(=O)N[C@@H](CCC(N)=O)C(=O)N[C@@H](C)C(=O)N[C@@H](C)C(=O)N[C@@H](CCCCN)C(=O)N[C@@H](CCC(=O)O)C(=O)N[C@@H](Cc1ccccc1)C(=O)N[C@H](C(=O)N[C@@H](C)C(=O)N[C@@H](Cc1c[nH]c2ccccc12)C(=O)N[C@@H](CC(C)C)C(=O)N[C@H](C(=O)N[C@@H](CCCCN)C(=O)NCC(=O)N[C@@H](CCCNC(=N)N)C(=O)NCC(=O)O)C(C)C)[C@@H](C)CC)C(C)C [compound 12]
18.7 ± 1.36,–,–,CCCCCCCCNC(=O)CC[C@H](NC(=O)[C@H](CC(C)C)NC(=O)[C@H](Cc1ccc(O)cc1)NC(=O)[C@H](CO)NC(=O)[C@H](CO)NC(=O)[C@@H](NC(=O)[C@H](CC(=O)O)NC(=O)[C@H](CO)NC(=O)[C@@H](NC(=O)[C@H](Cc1ccccc1)NC(=O)[C@@H](NC(=O)CNC(=O)[C@H](CCC(=O)O)NC(=O)[C@H](C)NC(=O)[C@@H](N)Cc1c[nH]cn1)[C@@H](C)O)[C@@H](C)O)C(C)C)C(=O)NCC(=O)N[C@@H](CCC(N)=O)C(=O)N[C@@H](C)C(=O)N[C@@H](C)C(=O)N[C@@H](CCCCN)C(=O)N[C@@H](CCC(=O)O)C(=O)N[C@@H](Cc1ccccc1)C(=O)N[C@H](C(=O)N[C@@H](C)C(=O)N[C@@H](Cc1c[nH]c2ccccc12)C(=O)N[C@@H](CC(C)C)C(=O)N[C@H](C(=O)N[C@@H](CCCCN)C(=O)NCC(=O)N[C@@H](CCCNC(=N)N)C(=O)NCC(=O)O)C(C)C)[C@@H](C)CC [compound 13]
18.4 ± 2.36,–,–,CCCCCCCCCCCCNC(=O)CC[C@H](NC(=O)[C@H](CC(C)C)NC(=O)[C@H](Cc1ccc(O)cc1)NC(=O)[C@H](CO)NC(=O)[C@H](CO)NC(=O)[C@@H](NC(=O)[C@H](CC(=O)O)NC(=O)[C@H](CO)NC(=O)[C@@H](NC(=O)[C@H](Cc1ccccc1)NC(=O)[C@@H](NC(=O)CNC(=O)[C@H](CCC(=O)O)NC(=O)[C@H](C)NC(=O)[C@@H](N)Cc1c[nH]cn1)[C@@H](C)O)[C@@H](C)O)C(C)C)C(=O)NCC(=O)N[C@@H](CCC(N)=O)C(=O)N[C@@H](C)C(=O)N[C@@H](C)C(=O)N[C@@H](CCCCN)C(=O)N[C@@H](CCC(=O)O)C(=O)N[C@@H](Cc1ccccc1)C(=O)N[C@H](C(=O)N[C@@H](C)C(=O)N[C@@H](Cc1c[nH]c2ccccc12)C(=O)N[C@@H](CC(C)C)C(=O)N[C@H](C(=O)N[C@@H](CCCCN)C(=O)NCC(=O)N[C@@H](CCCNC(=N)N)C(=O)NCC(=O)O)C(C)C)[C@@H](C)CC [compound 14]
–,slower degradation rates,still detectable at 24 h,CCCCCCCCCCCCCCCCNC(=O)CC[C@H](NC(=O)[C@H](CC(C)C)NC(=O)[C@H](Cc1ccc(O)cc1)NC(=O)[C@H](CO)NC(=O)[C@H](CO)NC(=O)[C@@H](NC(=O)[C@H](CC(=O)O)NC(=O)[C@H](CO)NC(=O)[C@@H](NC(=O)[C@H](Cc1ccccc1)NC(=O)[C@@H](NC(=O)CNC(=O)[C@H](CCC(=O)O)NC(=O)[C@H](C)NC(=O)[C@@H](N)Cc1c[nH]cn1)[C@@H](C)O)[C@@H](C)O)C(C)C)C(=O)NCC(=O)N[C@@H](CCC(N)=O)C(=O)N[C@@H](C)C(=O)N[C@@H](C)C(=O)N[C@@H](CCCCN)C(=O)N[C@@H](CCC(=O)O)C(=O)N[C@@H](Cc1ccccc1)C(=O)N[C@H](C(=O)N[C@@H](C)C(=O)N[C@@H](Cc1c[nH]c2ccccc12)C(=O)N[C@@H](CC(C)C)C(=O)N[C@H](C(=O)N[C@@H](CCCCN)C(=O)NCC(=O)N[C@@H](CCCNC(=N)N)C(=O)NCC(=O)O)C(C)C)[C@@H](C)CC [compound 15]
22.3 ± 0.46,–,–,CCCCCCCCNC(=O)CC[C@H](NC(=O)[C@H](CCCCN)NC(=O)[C@H](C)NC(=O)[C@H](C)NC(=O)[C@H](CCC(N)=O)NC(=O)CNC(=O)[C@H](CCC(=O)O)NC(=O)[C@H](CC(C)C)NC(=O)[C@H](Cc1ccc(O)cc1)NC(=O)[C@H](CO)NC(=O)[C@H](CO)NC(=O)[C@@H](NC(=O)[C@H](CC(=O)O)NC(=O)[C@H](CO)NC(=O)[C@@H](NC(=O)[C@H](Cc1ccccc1)NC(=O)[C@@H](NC(=O)CNC(=O)[C@H](CCC(=O)O)NC(=O)[C@H](C)NC(=O)[C@@H](N)Cc1c[nH]cn1)[C@@H](C)O)[C@@H](C)O)C(C)C)C(=O)N[C@@H](Cc1ccccc1)C(=O)N[C@H](C(=O)N[C@@H](C)C(=O)N[C@@H](Cc1c[nH]c2ccccc12)C(=O)N[C@@H](CC(C)C)C(=O)N[C@H](C(=O)N[C@@H](CCCCN)C(=O)NCC(=O)N[C@@H](CCCNC(=N)N)C(=O)NCC(=O)O)C(C)C)[C@@H](C)CC [compound 16]
19.6 ± 2.14,–,–,CCCCCCCCNC(=O)C[C@H](NC(=O)[C@@H](NC(=O)[C@H](CC(C)C)NC(=O)[C@H](Cc1c[nH]c2ccccc12)NC(=O)[C@H](C)NC(=O)[C@@H](NC(=O)[C@H](Cc1ccccc1)NC(=O)[C@H](CCC(=O)O)NC(=O)[C@H](CCCCN)NC(=O)[C@H](C)NC(=O)[C@H](C)NC(=O)[C@H](CCC(N)=O)NC(=O)CNC(=O)[C@H](CCC(=O)O)NC(=O)[C@H](CC(C)C)NC(=O)[C@H](Cc1ccc(O)cc1)NC(=O)[C@H](CO)NC(=O)[C@H](CO)NC(=O)[C@@H](NC(=O)[C@H](CC(=O)O)NC(=O)[C@H](CO)NC(=O)[C@@H](NC(=O)[C@H](Cc1ccccc1)NC(=O)[C@@H](NC(=O)CNC(=O)[C@H](CCC(=O)O)NC(=O)[C@H](C)NC(=O)[C@@H](N)Cc1c[nH]cn1)[C@@H](C)O)[C@@H](C)O)C(C)C)[C@@H](C)CC)C(C)C)C(=O)NCC(=O)N[C@@H](CCCNC(=N)N)C(=O)NCC(=O)O [compound 19]
20.1 ± 1.97,–,–,CCCCCCCCCCCCNC(=O)C[C@H](NC(=O)[C@@H](NC(=O)[C@H](CC(C)C)NC(=O)[C@H](Cc1c[nH]c2ccccc12)NC(=O)[C@H](C)NC(=O)[C@@H](NC(=O)[C@H](Cc1ccccc1)NC(=O)[C@H](CCC(=O)O)NC(=O)[C@H](CCCCN)NC(=O)[C@H](C)NC(=O)[C@H](C)NC(=O)[C@H](CCC(N)=O)NC(=O)CNC(=O)[C@H](CCC(=O)O)NC(=O)[C@H](CC(C)C)NC(=O)[C@H](Cc1ccc(O)cc1)NC(=O)[C@H](CO)NC(=O)[C@H](CO)NC(=O)[C@@H](NC(=O)[C@H](CC(=O)O)NC(=O)[C@H](CO)NC(=O)[C@@H](NC(=O)[C@H](Cc1ccccc1)NC(=O)[C@@H](NC(=O)CNC(=O)[C@H](CCC(=O)O)NC(=O)[C@H](C)NC(=O)[C@@H](N)Cc1c[nH]cn1)[C@@H](C)O)[C@@H](C)O)C(C)C)[C@@H](C)CC)C(C)C)C(=O)NCC(=O)N[C@@H](CCCNC(=N)N)C(=O)NCC(=O)O [compound 20]
